Reference: patent US20240025904A1, “PDE9 INHIBITORS FOR TREATING CARDIAC FAILURE” (Cardurion Pharmaceuticals, Inc., priority 2020, published 2024)
Values joined by “and” are separate entries in the source; they are usually repeats but may differ in a detail not shown here. Identical values can stand only once.

Legend:
[1] = system: angiotensin II-infused mouse (Ang-II model of HFpEF); assay: Angiotensin II infusion mouse model of HFpEF; format: in vivo
From the text: C57BL/6J mice develop compensatory concentric hypertrophy and fibrosis in response to angiotensin II. Pulmonary congestion, as well as exercise intolerance, are evident and seem to be related to angiotensin II-induced skeletal muscle abnormalities, including impaired mitochondrial function and skeletal muscle atrophy. In summary, if strain and dosage are optimized to mirror the human HFpEF phenotype, angiotensin II infusion appears to be a relevant HFpEF model.
Model 2: eight-week-old C57BL/6J male mice were anesthetized with isoflurane and subcutaneously implanted with an osmotic minipump to continuously infuse angiotensin II in 10 mM acetic acid at a dose of 1.5 mg/kg per day over a period of 4 to 6 weeks. Experimental animal groups were randomly assigned to receive either vehicle or Compound 1 at 60 mg/kg/day or 100 mg/kg/day by oral gavage for 4 or 6 weeks (36 mice, N=6/group) over the same time period. The mice were housed in a standard-temperature, 12 h/12 h light/dark controlled room, with water and standard rodent diet available ad libitum. Mice were euthanized 4 or 6 weeks after angiotensin-II infusion. It has been shown that administering of 60 mg/kg of Compound 1 in mice is equivalent to administering about 4.8 mg/kg of Compound 1 in adult human subjects. Similarly, it has been shown that administering 100 mg/kg of Compound 1 in mice is equivalent to administering about 8.1 mg/kg of Compound 1 in human subjects.
(§1) Methods: Cardiac and renal responses to Compound 1 (60 mg/kg, 100 mg/kg) compared with vehicle were examined over 6-8 weeks in 3 adult male mouse models of HFpEF (1.5 mg/kg/d angiotensin-II infusion [ang-II]; uninephrectomy+0.30 μg/h d-aldosterone infusion+1% NaCl drinking water [neph-aldo]; and db/db [db]). Phenotyping included wheat germ agglutinin staining for cardiomyocyte cross-sectional area (CSA); RT-PCR for myocardial PDE9, natriuretic peptide, inflammatory and fibrosis marker transcript abundances; ELISA for plasma natriuretic peptides; and urinary albumin to creatinine ratio (UACR).
(§2) P-value from Wilcoxon rank-sum test. Ang-II model (8-week old C57BL/6 mice were infused with ang-II at […] for 6 weeks with concomitant Compound 1 or vehicle). Neph+d-aldo+1% NaCl model (8-week old C57BL/6 mice underwent uninephrectomy then were infused with d-aldosterone for 6 weeks with ad-libitum 1% NaCl drinking water while receiving concomitant Compound 1 or vehicle). db model (20-week old BKS.Cg-Dock7m+/+Leprdb/J received vehicle or Compound 1 for 8 weeks). mRNA expression levels were normalized to GAPDH, Rpl4 and Eef1e1.

[2] = system: aldosterone-infused and unilateral nephrectomized mouse (neph-aldo model of HFpEF); assay: Uninephrectomy + d-aldosterone infusion + 1% NaCl mouse model of HFpEF; format: in vivo
From the text: Mice subjected to uninephrectomy and aldosterone infusion for 4 to 6 weeks, accompanied by 1% NaCl intake, develop HFpEF with moderate hypertension, concentric left ventricle hypertrophy, pulmonary congestion, and echocardiographic evidence of diastolic dysfunction while maintaining a normal/preserved LVEF. These mice also show exercise impairment. At the molecular level, left ventricle tissue from these mice show an increase in natriuretic peptides, cardiac size and fibrosis, as well as an increase in the oxidative stress.
Model 1: eight-week-old C57BL/6J male mice were anesthetized with 100 mg/kg ketamine and 10 mg/kg xylazine intraperitoneally. All mice underwent unilateral nephrectomy and then will receive a continuous infusion of d-aldosterone (0.30 μg/h) via osmotic minipumps. All mice were maintained on 1.0% sodium chloride drinking water. Mice were randomized to receive either vehicle or Compound 1 at 60 mg/kg/day or 100 mg/kg/day by oral gavage for 4 or 6 weeks (36 mice, N=6/group). The mice were housed in a standard-temperature, 12 h/12 h light/dark controlled room, with water and standard rodent diet available ad libitum. Mice were euthanized 4 or 6 weeks after the beginning of the treatment. It has been shown that administering of 60 mg/kg of Compound 1 in mice is equivalent to administering about 4.8 mg/kg of Compound 1 in adult human subjects. Similarly, it has been shown that administering 100 mg/kg of Compound 1 in mice is equivalent to administering about 8.1 mg/kg of Compound 1 in human subjects.
as §1, §2

db/db mouse = db/db mouse model of HFpEF; format: in vivo
From the text: The db/db leptin receptor-deficient mouse has a point mutation in the diabetes (db) gene encoding the leptin receptor, which spontaneously causes morbid obesity accompanied by severe hyperglycemia secondary to type 2 diabetes. […] At the histological level, these mice hearts have enlarged cardiomyocytes, evidence of fibrosis, and capillary rarefaction. The db/db mice appear to represent the obese/metabolic HFpEF phenotype, with evidence of HF, whereas LVEF is preserved.
Model 3: twenty-week old male diabetic-prone, obese db/db mice of the BKS.Cg-Dock7m+/+Leprdb/J strain will be randomly assigned (30 mice, n=10/group) to receive vehicle or chronic Compound 1 treatment at 60 mg/kg/day or 100 mg/kg/day. Treatment will be carried for 8 weeks using subcutaneous osmotic pumps. The mice will be housed in a standard-temperature, 12 h/12 h light/dark controlled room, with water and standard rodent diet available ad libitum.
as §1, §2

patient = assay: Administration with food, adverse event profile; format: in vivo; conditions: once a day with food
[3] = system: adult patients with sickle cell disease; assay: IMR-SCD-102 Phase 2a trial, plasma NT-proBNP; format: in vivo, human
Description: IMR-SCD-102 is an ongoing Phase 2a randomized double-blind placebo-controlled trial testing Compound 1 (IMR-687) at 50 mg-200 mg daily as monotherapy or 50-100 mg in combination with background hydroxyurea therapy (Compound 1+HU). A protocol amendment later in the study allowed for sample collection and characterization of NT-proBNP levels in the combination cohort (Compound 1+HU versus HU alone). Plasma NT-proBNP was measured in 15 subjects (100% HbSS genotype) at randomization and again at 4 months. A 2:1 randomization schema favoring combination treatment translated to 10 subjects on Compound 1+HU and 5 on HU alone. Baseline, 4-month follow-up, and change in NT-proBNP levels were quantified. Further, whether the change in NT-proBNP level varied according to treatment and baseline NT-proBNP level was tested.

[4] = median, Ang-II model, 6 weeks, normalized to GAPDH, Rpl4 and Eef1e1
[5] = median, Neph + Aldo model, 6 weeks
[6] = median, Neph + Aldo model, 6 weeks, normalized to GAPDH, Rpl4 and Eef1e1
[7] = median, db/db model, 8 weeks, normalized to GAPDH, Rpl4 and Eef1e1

Compound: C[C@@H]1CN(Cc2ncccn2)C[C@H]1c1cn2c(C3CCOCC3)ncc2c(=O)[nH]1 (single isomer, unassigned) [Compound 1]
- heart size and cardiomyocyte hypertrophy ([1]; 6 weeks of dosing at 60 and 100 mg/kg, FIGS. 1A, 1B): decreases
- Heart rate and blood pressure, Compound 1 vs vehicle treated mice ([1]; ang-II model): did not differ
- reduction of median cardiomyocyte size (CSA) compared with vehicle ([1]; ang-II model, Compound 1 60 mg/kg, 100 mg/kg, p<0.003): 54%
- ANP and BNP markers of cardiac dysfunction ([1]; dosing with 60 and 100 mg/kg, FIGS. 3A, 3B left side): decreases
- PDE5 and PDE9 expression ([1]; in combination with Angiotensin II, FIG. 4A): increased
- markers of myocardial inflammation ([1]; in combination with Angiotensin II, FIG. 8A): decreases
- heart fibrosis (TGF-ß1 and downstream targets Fibronectin and Collagen type I and III) ([1]; in combination with Angiotensin II, FIGS. 6A, 6B): decreases
- Plasma ANP ([1]; median, Ang-II model, 6 weeks): 968 pg/mL
- Plasma BNP ([1]; median, Ang-II model, 6 weeks): 2376 pg/mL
- Urine UACR (urinary albumin to creatinine ratio) ([1]; median, Ang-II model, 6 weeks): 95.5 µg/mg
- Myocardial mRNA PDE9 ([1]; median, Ang-II model, 6 weeks, Compound 1 60 mg/kg, 100 mg/kg, normalized to GAPDH, Rpl4 and Eef1e1): 1.7
- Myocardial mRNA COL3A1 [1, 4]: 1.5
- Myocardial mRNA IL-1b [1, 4]: 1.9
- Myocardial mRNA NPPA [1, 4]: 1.4
- Myocardial mRNA NPPB [1, 4]: 2.0
- heart size and cardiomyocyte hypertrophy ([2]; after 4 weeks of dosing at 60 and 100 mg/kg, FIGS. 2A, 2B): decreases
- ANP and BNP markers of cardiac dysfunction ([2]; dosing with 60 and 100 mg/kg, FIGS. 3A, 3B right side): decreases
- PDE5 and PDE9 expression ([2]; in combination with nephrectomy-aldosterone, FIG. 4B): increased
- heart fibrosis (TGF-ß1 and downstream targets Fibronectin and Collagen type I and III) ([2]; in combination with nephrectomy-aldosterone, FIG. 7): decreases
- markers of myocardial inflammation ([2]; in combination with nephrectomy-aldosterone, FIG. 8B): decreases
- Plasma ANP [2, 5]: 740 pg/mL
- Plasma BNP [2, 5]: 1216 pg/mL
- Urine UACR (urinary albumin to creatinine ratio) [2, 5]: 48.4 µg/mg
- Myocardial mRNA PDE9 ([2]; median, Neph + Aldo model, 6 weeks, Compound 1 60 mg/kg, 100 mg/kg, normalized to GAPDH, Rpl4 and Eef1e1): 3.7
- Myocardial mRNA COL3A1 [2, 6]: 2.6
- Myocardial mRNA IL-1b [2, 6]: 2.5
- Myocardial mRNA NPPA [2, 6]: 4.9
- Myocardial mRNA NPPB [2, 6]: 4.2
- Heart rate and blood pressure, Compound 1 vs vehicle treated mice ([2]; neph-aldo model): did not differ
- reduction of median cardiomyocyte size (CSA) compared with vehicle ([2]; neph-aldo model, Compound 1 60 mg/kg, 100 mg/kg, p<0.003): 58%
- Heart rate and blood pressure, Compound 1 vs vehicle treated mice (db/db mouse; db model): did not differ
- reduction of median cardiomyocyte size (CSA) compared with vehicle (db/db mouse; db model, Compound 1 60 mg/kg, 100 mg/kg, p<0.003): 35%
- Plasma ANP (db/db mouse; median, db/db model, 8 weeks): 714 pg/mL
- Plasma BNP (db/db mouse; median, db/db model, 8 weeks): 830 pg/mL
- Urine UACR (urinary albumin to creatinine ratio) (db/db mouse; median, db/db model, 8 weeks): 132.5 µg/mg
- Myocardial mRNA PDE9 (db/db mouse; median, db/db model, 8 weeks, Compound 1 60 mg/kg, 100 mg/kg, normalized to GAPDH, Rpl4 and Eef1e1): 1.5
- Myocardial mRNA COL3A1 (db/db mouse; [7]): 1.1
- Myocardial mRNA IL-1b (db/db mouse; [7]): 3.6
- Myocardial mRNA NPPA (db/db mouse; [7]): 1.7
- Myocardial mRNA NPPB (db/db mouse; [7]): 2.2
- effect of food on adverse event profile (nausea, emesis, headache) (patient): reduce the adverse event profile dramatically

Compound: NC(=O)NO [HU, hydroxyurea]
- treated subjects with greater than 50% reduction in NT-proBNP levels ([3]; at 4 months): none
- mean 4-month follow-up NT-proBNP level ([3]; plasma, 4 months): 436 pg/mL
- mean NT-proBNP higher at 4 months than baseline ([3]; plasma, 4 months): 27.0% and 27. %
- mean increase of NT-proBNP, baseline to 4 months ([3]; plasma, 4 months): 93 pg/mL
- mean baseline NT-proBNP level ([3]; plasma, at randomization): 343 pg/mL
- average increase in NT-proBNP between baseline and 4 months ([3]; subjects with baseline NT-proBNP ≥400 pg/ml): 28%
